The record followed here is patent US9914735B2, “Heteroaryl Syk inhibitors” (Boehringer Ingelheim International GmbH, priority 2014, dated 2018).

By IC50 is commonly meant the point on the concentration scale where inhibition reaches its midpoint.

Like-named read-outs stand apart in the source and are kept apart here.

In one series the target is Human GSK3beta (Homo sapiens (Human), UniProt P49841). Description: GSK 3beta kinase test (Z'-LYTE). Type of series: biochemical. Conditions: read-out: IC50 in μM (GSK3beta-Inhibition). As to the method:
Human GSK3beta (expressed and prified from SF21 cells) is obtained from the University Dundee/Scotland (Dr. James Hastie—Dept. of Biochemistry) in 50 mM Tris (pH7.5); 150 mM NaCl; 0.1 mM EGTA, 270 mM Succrose, 0.1% β-mercaptoethanol, 1 mM benzamidine, 0.2 mM PMSF; sequence see below). The enzyme is diluted to 3.56 μM (168 μg/ml) in enzyme dilution buffer and 6 μl aliquots are stored at −80° C.
The activity of GSK3 kinase protein is measured using the Z′-LYTETM assay technology from Invitrogen (# PV3324).
The assay is performed in 384 black plates from Corning (#3676) in a final volume of 10 μl by adding 5 μl of kinase peptide mix and 2.5 μl of compound dilution. The reaction is started by addition of 2.5 μl of the 4×ATP solution.
Positive controls are reaction mixtures containing no test compound; negative controls (blanks) are reaction mixtures containing no ATP. As a further control, the phosphopeptide solution is added to wells without kinase and without ATP (=100% phosphorylation control).
The non inhibited kinase reaction will result in a phosphorylation corresponding to 20%-30% of the phosphorylation control.
The reaction is performed 1 h at room temperature. After 1h 5 μl of the development solution is added. After a further incubation for 1 h at room temperature 5 μl of the stop reagent is added. Finally the plates are read on a Flex Station II 384 (Molecular Devices).
The output text file is evaluated in an “MS-Excel—VB-Makro” and “GraphPadPrism” (Version 5) (GraphPad Software Inc.) is used to calculate the results. Data for the inhibition of GSK3beta are reported in M. data for the inhibition of the protease are reported in % CTL.

Series [1] can be described thus: Human liver microsomal stability test. It counts as in vitro ADME. Particulars: human liver microsomes. As to the method: The metabolic degradation for a specific SYK-inhibitor is performed at 37° C. with pooled human liver microsomes (human liver microsomes are commercially available as “BD UltraPool™” by Corning Life Sciences, Fogostraat 12, 1060 LJ Amsterdam, The Netherlands). The final incubation volume of 100 μl per time point contains TRIS buffer pH 7.6 at RT (0.1 M), magnesium chloride (5 mM), microsomal protein (1 mg/ml) and the test compound at a final concentration of 1 μM.
Following a short preincubation period at 37° C., the reaction is initiated by addition of beta-nicotinamide adenine dinucleotide phosphate in its reduced form (NADPH, 1 mM) and terminated by transfering an aliquot into solvent after different time points. Additionally, the NADPH-independent degradation is monitored in incubations without NADPH, terminated at the last time point.
The quenched (terminated) incubations are then pelleted by centrifugation (10000 g, 5 min).
An aliquot of the supernatant is assayed by LC-MS/MS for the remaining amount of parent compound. The half-life (t1/2 INVITRO) is determined by the slope of the semilogarithmic plot of the concentration-time profile.
The intrinsic clearance (CL_[…]) is calculated by considering the amount of protein in the incubation: CL_[…][μl/min/mg protein]=(Ln 2/(t1/2 INVITRO[min]*protein content[mg/ml]))*1000
The protein content [mg/ml] was determined with the “Bicinchoninic Acid Kit” of Sigma Aldrich (commercially available).
The upscaled intrinsic Clearance (CL_UP_INT) is calculated by considering the liver weight [g liver/kg body weight] and the microsomal recovery [mg protein/g liver]: CL_UP_INT[ml/min/kg]=0.001*CL_[…]*liver weight*microsomal recovery • with microsomal recovery=45 mg protein/g liver • with liver weight=25.7 g liver/kg body weight
The percent hepatic blood flow (% Qh) is finally calculated by considering the human liver blood flow Q [ml/min/kg]: % Qh[%]=((Q*CL_UP_INT)/(Q+CL_UP_INT)/Q)*100 • with liver blood flow (Q)=20.7 ml/min/kg.
(In general: Microsomes from liver hold many membrane-bound enzymes, among them those of drug oxidation.)

Series [2] addresses Recombinant human Syk (amino acids 342-635), GST-Syk kinase fusion protein (Homo sapiens (Human), UniProt P43405). Put plainly: Syk kinase test (Kinase Glo luminescence). Type of series: biochemical. As to the method:
The output file of the reader is a csv file that contains the well number and measured relative light units (RLU). For data evaluation and calculation, the measurement of the negative control was set as 100% ctrl and the measurement of the positive control was set as 0% ctrl. Based on this values the % value for the measurement of each substance concentration was calculated using an Assay Explorer software (Accelrys). Normally, the % ctrl values calculated are between 0% and 100% values but may also occur outside these limits in individual cases based on variability or compound characteristics. The IC50 values were calculated from the % ctrl values using Assay Explorer software. Calculation:[y=(a−d)/(1+(x/c)^b)+d] a=low value, d=high value; x=conc M; c=IC50 M; b=hill; y=% ctrl.
In general terms: In Kinase-Glo more light means more ATP remaining.

Series [3] has as its target Recombinant human Aurora B (amino acids 1-344) (Homo sapiens (Human), UniProt Q96GD4). Description: Aurora B kinase test (ADP Glo luminescence). Type of series: biochemical. A general note: ADP-Glo first removes unused ATP, then detects ADP through luciferase.
The next series has as its target FLT3 (Homo sapiens (Human), UniProt P36888). Description: FLT3 kinase test (Z'-LYTE). It counts as biochemical. In short, it runs like this:
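Z'-LYTE FRET format; kinase reaction started with ATP, run 1 h at room temperature, then 1 h development before stop reagent. Controls without compound, without kinase, and phosphopeptide as 100% phosphorylation reference; values reported in M.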

The mark [4] stands for this setting: read-out: IC50 in μM (SYK-Inhibition).
[5] abbreviates: read-out: IC50 in μM (AURB-Inhibition).
The mark [6] stands for this setting: read-out: IC50 in μM (FLT3-Inhibition).
The mark [7] stands for this setting: Table 1, read-out: SYK-inhibition IC50-value.
Setting [8] is: Table 1, read-out: AURB-inhibition IC50-value.
The mark [9] stands for this setting: Table 1, read-out: FLT3-inhibition IC50-value.
[10] abbreviates: Table 2a, read-out: IC50 in μM (SYK-Inhibition).
The mark [11] stands for this setting: Table 2a, read-out: IC50 in μM (AURB-Inhibition).
The mark [12] stands for this setting: Table 2a, read-out: IC50 in μM (FLT3-Inhibition).

FLT3, sequence (P36888 27-993): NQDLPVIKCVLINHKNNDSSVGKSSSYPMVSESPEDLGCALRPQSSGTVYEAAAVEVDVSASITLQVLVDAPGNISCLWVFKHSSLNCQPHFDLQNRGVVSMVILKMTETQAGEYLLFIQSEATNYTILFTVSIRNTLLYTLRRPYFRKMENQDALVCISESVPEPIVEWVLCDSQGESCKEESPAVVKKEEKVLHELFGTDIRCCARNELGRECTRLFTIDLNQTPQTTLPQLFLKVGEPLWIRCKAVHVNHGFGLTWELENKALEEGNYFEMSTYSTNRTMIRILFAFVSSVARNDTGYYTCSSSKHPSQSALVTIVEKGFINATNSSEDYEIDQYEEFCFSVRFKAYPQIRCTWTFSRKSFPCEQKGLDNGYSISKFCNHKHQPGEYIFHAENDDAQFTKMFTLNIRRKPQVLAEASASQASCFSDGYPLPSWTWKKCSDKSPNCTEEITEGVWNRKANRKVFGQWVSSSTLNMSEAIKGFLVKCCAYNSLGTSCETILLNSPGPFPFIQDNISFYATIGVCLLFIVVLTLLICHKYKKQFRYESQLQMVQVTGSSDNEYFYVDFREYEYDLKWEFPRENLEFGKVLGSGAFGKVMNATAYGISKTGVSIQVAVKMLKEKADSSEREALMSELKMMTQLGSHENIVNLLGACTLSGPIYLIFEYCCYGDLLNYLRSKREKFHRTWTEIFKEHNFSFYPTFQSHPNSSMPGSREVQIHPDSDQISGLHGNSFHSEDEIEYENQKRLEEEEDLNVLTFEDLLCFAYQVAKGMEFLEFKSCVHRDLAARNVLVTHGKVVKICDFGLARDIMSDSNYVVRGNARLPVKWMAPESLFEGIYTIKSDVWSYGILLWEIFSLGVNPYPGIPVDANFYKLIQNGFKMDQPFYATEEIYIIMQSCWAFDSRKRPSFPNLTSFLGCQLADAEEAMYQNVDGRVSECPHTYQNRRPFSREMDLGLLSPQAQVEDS
Human GSK3beta, sequence (P49841 whole entry): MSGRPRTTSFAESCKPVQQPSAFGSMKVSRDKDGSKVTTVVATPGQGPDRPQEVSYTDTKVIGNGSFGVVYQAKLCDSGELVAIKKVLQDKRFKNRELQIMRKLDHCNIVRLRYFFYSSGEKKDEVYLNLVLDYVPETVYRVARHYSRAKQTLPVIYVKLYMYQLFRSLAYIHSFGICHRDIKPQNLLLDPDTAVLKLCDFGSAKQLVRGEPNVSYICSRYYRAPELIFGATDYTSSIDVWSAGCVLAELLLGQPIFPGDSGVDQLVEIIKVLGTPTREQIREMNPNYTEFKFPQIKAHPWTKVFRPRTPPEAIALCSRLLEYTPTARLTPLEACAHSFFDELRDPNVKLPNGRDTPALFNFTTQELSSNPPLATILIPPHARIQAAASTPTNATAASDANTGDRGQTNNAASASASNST
Recombinant human Aurora B (amino acids 1-344), sequence (Q96GD4 whole entry, the tested form may be a part): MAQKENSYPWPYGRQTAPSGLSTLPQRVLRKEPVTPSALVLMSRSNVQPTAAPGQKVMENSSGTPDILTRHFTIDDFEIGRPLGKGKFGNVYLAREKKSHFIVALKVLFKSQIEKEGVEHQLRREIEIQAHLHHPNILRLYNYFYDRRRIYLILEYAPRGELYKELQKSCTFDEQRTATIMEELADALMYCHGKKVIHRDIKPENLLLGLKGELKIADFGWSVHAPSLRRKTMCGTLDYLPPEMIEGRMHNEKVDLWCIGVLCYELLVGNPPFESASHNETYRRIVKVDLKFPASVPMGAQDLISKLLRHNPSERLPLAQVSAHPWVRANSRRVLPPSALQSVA

As to `COc1cc(-c2cc3ncccc3c(O[C@H](C)[C@H]3CNC(=O)C3)n2)ccc1OC(F)(F)F` [4 of WO 2011/092128], the IC50 on Human GSK3beta is greater than 10 µM; in series [2] (setting [4]) it was 0.003 µM; in series [3] (setting [5]), 1.85 µM; on FLT3 (setting [6]) it was 0.633 µM. In addition, in series [1] (Qh = liver blood flow), the “microsomal stability Cl [% Qh]” value was determined as 33 % Qh.
Taken in the same sequence, the figures for `C[C@@H](Oc1cc(-c2ccccn2)cc2ncccc12)[C@H]1CNC(=O)C1` [6 of WO 2013/014060] were greater than 1 µM, 0.004 µM, 1.03 µM, 0.64 µM and 24 % Qh.
Regarding `COc1cc(-c2cc3ncccc3c(O[C@H](C)[C@H]3CNC(=O)C3)n2)cc(OC)c1OC` [35 of WO 2011/092128], the IC50 is greater than 10 µM on Human GSK3beta, 0.001 µM in series [2] (setting [4]), 5.21 µM in series [3] (setting [5]) and 1.18 µM at FLT3 (setting [6]). Besides, the “microsomal stability Cl [% Qh]” value in series [1] (Qh = liver blood flow) was 62 % Qh.
Consider `Cc1nc2ccc(-c3cc(O[C@H](C)[C@H]4CNC(=O)C4)c4cccnc4c3)cc2s1` [85 of WO 2013/014060], for which the IC50 at Human GSK3beta turned out to be 6.82 µM; in series [2] (setting [4]), 0.002 µM; in series [3] (setting [5]) it was 0.46 µM; at FLT3 (setting [6]) it was 0.321 µM. Moreover, the “microsomal stability Cl [% Qh]” value in series [1] (Qh = liver blood flow) worked out at 49 % Qh.
As to `COc1cc(-c2cc(O[C@H](C)[C@H]3CNC(=O)C3)c3cccnc3c2)ccc1C(F)(F)F` [102 of WO 2013/014060], the IC50 at Human GSK3beta is greater than 10 µM; in series [2] (setting [4]), 0.013 µM; in series [3] (setting [5]) it was 2.63 µM; on FLT3 (setting [6]) it was 2.27 µM. Besides, in series [1] (Qh = liver blood flow), the “microsomal stability Cl [% Qh]” value was found to be 54 % Qh.
Take `Cc1nc2cc(-c3cc(O[C@H](C)[C@H]4CNC(=O)C4)c4cccnc4c3)ccc2n1C` [105 of WO 2013/014060]: the IC50 on Human GSK3beta is greater than 10 µM; in series [2] (setting [4]) it was 0.001 µM; in series [3] (setting [5]) it was 0.479 µM; at FLT3 (setting [6]), 0.309 µM. Moreover, the “microsomal stability Cl [% Qh]” value in series [1] (Qh = liver blood flow) worked out at 64 % Qh.
The like results for `Cc1nc(C)c2cc(-c3cc(O[C@H](C)[C@H]4CNC(=O)C4)c4cccnc4c3)ccc2n1` [107 of WO 2013/014060] were, in that order, greater than 10 µM, 0.009 µM, 1.82 µM, 1.76 µM and 38 % Qh.
The like results for `Cc1nc2cc(-c3cc(O[C@H](C)[C@H]4CNC(=O)C4)c4cccnc4c3)ccc2[nH]1` [109 of WO 2013/014060] were, in that order, greater than 10 µM, 0.001 µM, 0.26 µM, 0.33 µM and 41 % Qh.
Regarding `COc1ccc(-c2cc3nn(C)cc3c(O[C@H](C)[C@H]3CNC(=O)C3)n2)cc1OC` [Example 1, (4R)-4-[(1R)-1-[6-(3,4-Dimethoxyphenyl)-2-methyl-pyrazolo[4,3-c]pyridin-4-yl]oxyethyl]pyrrolidin-2-one], the IC50 was greater than 10 µM on Human GSK3beta; 0.016 µM in series [2] (setting [7]); 0.016 µM in series [2] (setting [4]); greater than 50 µM in series [3] (setting [8]); greater than 50 µM in series [3] (setting [5]); 3.99 µM on FLT3 (setting [9]). In addition, the IC50 on FLT3 (setting [6]) amounted to 3.99 µM. For the same compound, in series [1] (Qh = liver blood flow), the “microsomal stability Cl [% Qh]” value is less than 23 % Qh.
In the case of `C[C@@H](Oc1nc(-c2cnn(C(C)(C)C)c2)cc2nn(C)cc12)[C@H]1CNC(=O)C1` [Example 2, (4R)-4-[(1R)-1-[6-(1-tert-Butylpyrazol-4-yl)-2-methyl-pyrazolo[4,3-c]pyridin-4-yl]oxyethyl]pyrrolidin-2-one], the IC50 at Human GSK3beta (Table 2a) is greater than 10 µM; in series [2] (setting [7]), 0.0144 µM; in series [2] (setting [10]) it was 0.0144 µM; in series [3] (setting [8]), greater than 50 µM; in series [3] (setting [11]), greater than 50 µM; at FLT3 (setting [9]) it was 14.8 µM. Also, the IC50 at FLT3 (setting [12]) is 14.8 µM. For the same compound, in series [1] (test compound 1 μM, Table 2a), the “microsomal stability Cl [% Qh]” value is less than 23 % Qh.
Take `COc1cc(-c2cc3nn(C)cc3c(O[C@H](C)[C@H]3CNC(=O)C3)n2)ccc1O` [Example 8, (4R)-4-[(1R)-1-[6-(4-Hydroxy-3-methoxy-phenyl)-2-methyl-pyrazolo[4,3-c]pyridin-4-yl]oxyethyl]pyrrolidin-2-one]: the IC50 on Human GSK3beta is greater than 10 µM; in series [3] (setting [8]), greater than 50 µM; in series [3] (setting [5]), greater than 50 µM; on FLT3 (setting [9]) it was 13.5 µM; on FLT3 (setting [6]) it was 13.5 µM. Further, the “microsomal stability Cl [% Qh]” value in series [1] (Qh = liver blood flow) is less than 23 % Qh.
For `C[C@@H](Oc1cc(-c2cnn(C(C)(C)C)c2)cc2nn(C)cc12)[C@H]1CNC(=O)C1` [Example 18, (4R)-4-[(1R)-1-[6-(1-tert-butylpyrazol-4-yl)-2-methyl-indazol-4-yl]oxyethyl]pyrrolidin-2-one], the IC50 was greater than 10 µM on Human GSK3beta (Table 2a); 0.0046 µM in series [2] (setting [7]); 0.0046 µM in series [2] (setting [10]); greater than 50 µM in series [3] (setting [8]); greater than 50 µM in series [3] (setting [11]); 13.4 µM at FLT3 (setting [9]). The IC50 on FLT3 (setting [12]) was found to be 13.4 µM. Further, the “microsomal stability Cl [% Qh]” value in series [1] (test compound 1 μM, Table 2a) was less than 23 % Qh.
On to `C[C@@H](Oc1cc(-c2ccc(N3CCN(C)CC3)cc2)cc2nn(C)cc12)[C@H]1CNC(=O)C1` [Example 26, (4R)-4-[(1R)-1-[2-methyl-6-[4-(4-methylpiperazin-1-yl)phenyl]indazol-4-yl]oxyethyl]pyrrolidin-2-one], for which the IC50 was greater than 10 µM on Human GSK3beta; 0.0258 µM in series [2] (setting [7]); 0.0258 µM in series [2] (setting [4]); greater than 50 µM in series [3] (setting [8]); greater than 50 µM in series [3] (setting [5]); 0.95 µM on FLT3 (setting [9]). Besides, the 50% inhibitory concentration (IC50) at FLT3 (setting [6]) was 0.95 µM. For the same compound, the “microsomal stability Cl [% Qh]” value in series [1] (Qh = liver blood flow) is listed as less than 23 % Qh.
As to `CC(C)Oc1ccc(-c2cc(O[C@H](C)[C@H]3CNC(=O)C3)c3cn(C)nc3c2)cn1` [Example 27, (4R)-4-[(1R)-1-[6-(6-isopropoxy-3-pyridyl)-2-methyl-indazol-4-yl]oxyethyl]pyrrolidin-2-one], the IC50 is greater than 10 µM at Human GSK3beta; 0.138 µM in series [2] (setting [7]); 0.138 µM in series [2] (setting [4]); greater than 50 µM in series [3] (setting [8]); greater than 50 µM in series [3] (setting [5]); 26.6 µM on FLT3 (setting [9]). Also, on FLT3 (setting [6]), the IC50 turned out to be 26.6 µM. Moreover, in series [1] (Qh = liver blood flow), the “microsomal stability Cl [% Qh]” value was less than 23 % Qh.
